In general, IC50 refers to the midpoint of a concentration-inhibition curve.

The test system of assay [1] is male CD1 mice. As to the kind of experiment: In vivo predictive sedation-hypnosis test (traveled distance). As to conditions: Mus musculus, ip, 0.5 h, traveled distance over 30 min versus control, read-out: % inhib motor activity; for inhibition in vivo at 0.98 µmol/kg: 0.98 μmol/kg intraperitoneal; for inhibition in vivo at 98 µmol/kg: 98.0 μmol/kg intraperitoneal.
Assay [2] deals with male CD1 mice. The experiment in a line: In vivo predictive anesthetic test (loss of righting reflex). The protocol: c) In Vivo Determination of Predictive Anesthetic Activity
The in vivo effects of these compounds were assessed by a predictive anesthetic test in mice as the loss of righting reflex (Kralic et al., Neuropharmacology, 43(4), 685-689 2002; Belelli et al., Neuropharmacology, 45, 57-71, 2003).
Groups of 5-8 male CD1 mice, weighing 22-26 g at the time of test, were used. The test compounds were administered at 98.0 μmol/kg by mean of intraperitoneal injection. Compounds were suspended in 0.25% agar with one drop of Tween in a volume of 10 mL/kg.

In assay [3] the test system is α1-GABAA receptor. The experiment in a line: Ligand-binding assay, radiolabeled flumazenil competition, cerebellum membranes. As to conditions: rat cerebellum membranes, radiolabeled flumazenil 1 nM. Here is the method:
(§1) a) Ligand-binding Assays. Determination of the Affinity of Test Compounds for α1- and α2-GABAA Receptor
(§2) Male Sprague-Dawley rats weighing 200-250 g at the time of experiment were used. After decapitation of the animal, the cerebellum (tissue that mostly contains α1-GABAA receptor) and spinal cord (tissue that mostly contains α2-GABAA receptor) were removed. The membranes were prepared according to the method by J. Lameh et al. (Prog. Neuro-Psychopharmacol. Biol. Psychiatry, 24, 979-991, 2000) and H. Noguchi et al. (Eur J Pharm, 434, 21-28, 2002) with slight modifications. Once the tissues weighed, they were suspended in 50 mM Tris.HCl (pH 7.4), 1:40 (v/v), or sucrose 0.32 M in the case of spinal cord, homogenized and then centrifuged at 20000 g for 10 minutes at 7° C. The resulting pellet was resuspended under the same conditions and centrifuged again. The pellet was finally resuspended on a minimum volume and kept at −80° C. overnight. A slight modification was used in the case of spinal cord at the first centrifugation step. Centrifugation speed was at 1000 g and the supernatant was collected instead of discarded as in cerebellum. Then, supernatant was centrifuged at 20000 g and resuspended twice more under the same conditions described above for cerebellum. On the next day, the process was repeated until the final pellet was resuspended at a ratio of 1:10 (v/v) in the case of cerebellum and at a ratio of 1:5 (v/v) in the case of spinal cord.
(§3) Affinity was determined by competitive tests using radiolabeled flumazenil as ligand. The tests were performed according to the methods described by S. Arbilla et al. (Eur. J. Pharmacol., 130, 257-263, 1986); and Y. Wu et al. (Eur. J. Pharmacol., 278, 125-132, 1995) using 96-well microtiter plates. The membranes containing the study receptors, flumazenil (radiolabeling at a final concentration of 1 nM) and ascending concentrations of test compounds (in a total volume of 230 μl in 50 mM [pH 7.4] Tris.HCl buffer) were incubated. Simultaneously, the membranes were only incubated with the radiolabeled flumazenil (total binding, 100%) and in the presence of an elevated concentration of unradiolabeled flumazenil (non-specific binding, % estimation of radiolabeled ligand). The reactions started on adding the radiolabeled ligand followed by incubation for 60 minutes at 4° C. At the end of the incubation period, 200 μl of reaction were transferred to a multiscreen plate (Millipore) and filtered using a vacuum manifold and then washed three times with cold test buffer. The multiscreen plates were equipped with a GF/B filter that retained the membranes containing the receptors and the radiolabeled ligand which had been bound to the receptors. After washing, the plates were left till dry. Once dried, scintillation liquid was added and left under stirring overnight. The next day the plates were counted using a Perkin-Elmer Microbeta scintillation counter.
(§4) For analysis of the results the percentage of specific binding for every concentration of test compound was calculated as follows: specific binding−(X−N/T−N)×100 where, X: amount of bound ligand for every concentration of compound. T: total binding, maximum amount bound to the radiolabeled ligand. N: non-specific binding, amount of radiolabeled ligand bound in a non-specific way irrespective of the receptor used.
(§5) Every concentrations of compound were tested in triplicate and their mean values were used to determine the experimental values of % specific binding versus the concentration of compound. Affinity data are expressed as % inhibition at 10^−5M and 10^−7M concentrations.

Assay [4] concerns the target T1, GABAA receptor.
T1 construct: IC50; other: compounds of the invention; estimated from Ki by Cheng-Prusoff equation, radioligand 1 nM
The experiment in a line: Comparative assay: IC50 values estimated from Cheng-Prusoff equation. As to conditions: compounds of the invention; estimated from Ki by Cheng-Prusoff equation, radioligand 1 nM. It is filed as binding, rat. The protocol: All these compounds have in common that at 3-position, the imidazo[1,2-b]pyradizine ring have an acetamide. The rest of compounds disclosed in WO89/01333 are not structurally so related with the compounds of the present invention.
The IC50 values were estimated from Cheng-Prusoff equation (Cheng Y. C. and Prusoff W. H.; Biochem. Pharmacol. 22, 3099-3108, 1973)
[formula] where, Ki is determined for each one of the compounds of the invention as described above (section (a)). [RL*]: radiolabeled ligand concentration (1 nM). Kd: affinity constant (cerebellum 1.34 nM/spinal cord 1.19 nM)

Assay [5] deals with α2-GABAA receptor. The experiment in a line: Ligand-binding assay, radiolabeled flumazenil competition, spinal cord membranes. As to conditions: rat spinal cord membranes, radiolabeled flumazenil 1 nM. Here is the method:
as §1, §2, §3, §4, §5

On to `CCCN(CCC)C(=O)Cc1c(-c2ccc(C)cc2)nc2ccc(Cl)nn12` [Example 2, 2-(6-Chloro-2-p-tolyl-imidazo[1,2-b]pyridazin-3-yl)-N,N-dipropyl-acetamide], for which, in assay [1], the inhibition in vivo at 0.98 µmol/kg was 38.4% and the inhibition in vivo at 98 µmol/kg is 96.7%. In assay [2] (98.0 μmol/kg intraperitoneal), the “% of animals with loss of righting reflex” value is on record as 90%.

As to `CCCCN(CCCC)C(=O)Cc1c(-c2ccc(C)cc2)nc2ccc(Cl)nn12` [Example 3, N,N-Dibutyl-2-(6-chloro-2-p-tolyl-imidazo[1,2-b]pyridazin-3-yl)-acetamide], in assay [1], the inhibition in vivo at 0.98 µmol/kg was 14.6% and the inhibition in vivo at 98 µmol/kg was 90.9%. In addition, in assay [2] (98.0 μmol/kg intraperitoneal), the “% of animals with loss of righting reflex” value is recorded as 100%.

Regarding `CCCN(CC1CC1)C(=O)Cc1c(-c2ccc(C)cc2)nc2ccc(C)nn12` [Example 82, N-Cyclopropylmethyl-2-(6-methyl-2-p-tolyl-imidazo[1,2-b]pyridazin-3-yl)-N-propyl-acetamide], the inhibition in vivo at 98 µmol/kg in assay [1] was 94.2%. The “% of animals with loss of righting reflex” value in assay [2] (98.0 μmol/kg intraperitoneal) is 30%.

As to `Cc1ccc(-c2nc3ccc(C)nn3c2CC(=O)Nc2ccccn2)cc1` [Example 88, 2-(6-Methyl-2-p-tolyl-imidazo[1,2-b]pyridazin-3-yl)-N-pyridin-2-yl-acetamide], in assay [3], the “% inhib 10^−5 M, affinity for the α1-subunit of the GABAA receptor” value was determined as 100.2% and the “% inhib 10^−7 M, affinity for the α1-subunit of the GABAA receptor” value is listed as 83.9%. Moreover, in assay [1], the inhibition in vivo at 98 µmol/kg was 88.5%. In addition, the IC50 in assay [4] is 13 nM.

For `Cc1ccc(-c2nc3ccc(C)nn3c2CC(=O)Nc2cc(C)on2)cc1` [Example 95, N-(5-Methyl-isoxazol-3-yl)-2-(6-methyl-2-p-tolyl-imidazo[1,2-b]pyridazin-3-yl)-acetamide], in assay [4], the IC50 was 17.1 nM.

For `Cc1ccc(-c2nc3ccc(C)nn3c2CC(=O)Nc2cc(C)no2)cc1` [Example 97, N-(3-Methyl-isoxazol-5-yl)-2-(6-methyl-2-p-tolyl-imidazo[1,2-b]pyridazin-3-yl)-acetamide], in assay [4], the IC50 is 14.6 nM.

For `Cc1ccc(-c2nc3ccc(C)nn3c2CC(=O)Nc2nncs2)cc1` [Example 98, 2-(6-Methyl-2-p-tolyl-imidazo[1,2-b]pyridazin-3-yl)-N-[1,3,4]thiadiazol-2-yl-acetamide], the IC50 in assay [4] is 12.2 nM.

`Cc1ccc(-c2nc3ccc(C)cn3c2CC(=O)N(C)C)cc1` [zolpidem, N,N,6-trimethyl-2-p-tolylimidazo[1,2-a]pyridine-3-acetamide, reference compound]: in assay [3], the “% inhib 10^−5 M, affinity for the α1-subunit of the GABAA receptor” value stood at 99.4% and the “% inhib 10^−7 M, affinity for the α1-subunit of the GABAA receptor” value is 73.6%. Besides, the “% inhib 10^−5 M, affinity for the α2-subunit of the GABAA receptor” value in assay [5] (10^−5 M) worked out at 74.1%. Besides, in assay [5] (10^−7 M), the “% inhib 10^−7 M, affinity for the α2-subunit of the GABAA receptor” value was 19.9%. Moreover, in assay [1], the inhibition in vivo at 0.98 µmol/kg is 18.3% and the inhibition in vivo at 98 µmol/kg is 91.7%. Moreover, the “% of animals with loss of righting reflex” value in assay [2] (double dose than compounds of the present invention) is listed as 80%.

These data come from patent US8993562B2, “Imidazo[1,2-b]pyridazines, processes, uses, intermediates and compositions” (Ferrer Internacional, S.A., priority 2006, dated 2015).
